Source: publication PMC4805082, “Seizure control by decanoic acid through direct AMPA receptor inhibition” (Brain, 2015)

Test system: epileptiform activity (burst discharges) in hippocampal slices induced by low-Mg2+
Assay: In vitro seizure model, low-Mg2+ induced epileptiform activity in hippocampal slices
Type: cell-based, rat
Conditions: 1 mM; low magnesium
Protocol: Male Sprague-Dawley rats (postnatal Days 19–30) were sacrificed using an overdose of isoflurane or pentobarbitone (500 mg/kg). After decapitation the brain was rapidly removed, the hippocampus or entorhinal cortex-hippocampus slices was dissected from the brain and […] thick transverse slices were prepared on a VT1200S vibratome (Leica) or Vibratome (Vibratome® 1500 sectioning system, Intracell). The slicing was performed in ice-cold sucrose-based solution containing (in mM): 75 sucrose, 87 NaCl, 22 glucose, 2.5 KCl, 7 MgCl2, 1.25 NaH2PO4, 0.5 CaCl2 and 25 NaHCO3, pH 7.4, 315–330 mOsm equilibrated with 95% O2 plus 5% CO2. The slices were then stored in a continuously oxygenated humidified interface holding chamber containing oxygenated artificial CSF (in mM): 120 NaCl, 22 glucose, 2.5 KCl, 1.3 MgSO4, 1 NaH2PO4, 25 NaHCO3 and 2.5 CaCl2, pH 7.4 296 mOsm, where they recovered for at least 1 h before use.
During the experiment, slices were transferred from the interface chamber into a submerged recording chamber, designed to optimize wash-in and wash-out of drugs, and continuously perfused using gravity feed at 3–6 ml/min with prewarmed (36°C) oxygenated artificial CSF (95% O2, 5% CO2). Field potentials were recorded with a glass microelectrode (1–2 MΩ) filled with artificial CSF solution placed in stratum radiatum of CA1 and were filtered at 1 kHz and digitized at 2 kHz (using an npi EXT-02F extracellular amplifier recorded with WinEDR software). In the pentylenetetrazol model, the epileptiform (paroxysmal) activity was induced by application of pentylenetetrazol (2 mM) to the perfusate and [K^+] was increased (to 6 mM); in low-Mg^2+ model, the epileptiform activity was elicited by using Mg^2+-free artificial CSF. Once the frequency of the paroxysmal activity was stable for at least 10 min, compounds were applied to the perfusate for the following 40 min, and washed out for a remaining 20 min. The anticonvulsant effects were evaluated by measuring the change in the frequency of the discharges at minute intervals. […]

CCCCCCCCCC(=O)O [decanoic acid] was tested, and the “effect on epileptiform activity” value was “completely blocked”.
